# Values quoted from earlier work, collected in patent US5780426A, “Fivemer cyclic peptide inhibitors of diseases involving αv β3” (IXSYS, Incorporated, priority 1995, dated 1998).
# Bridge positions count the residues as written; N and C are the ends. Ends that are not written are not given here.
# What was measured:
# αv β3 receptor = settings: chicken embryo tumor model; Brooks et al., Cell 1994
# osteoclasts = settings: Horton et al. 1991
# integrin αv β3 = integrin αv β3 (Homo sapiens, UniProt P05106+P06756); settings: Koivunen et al. 1995
# angiogenesis = settings: Nicosia and Bonanno 1991
# integrin αv β3, sequence (P06756 31-889 limits assumed): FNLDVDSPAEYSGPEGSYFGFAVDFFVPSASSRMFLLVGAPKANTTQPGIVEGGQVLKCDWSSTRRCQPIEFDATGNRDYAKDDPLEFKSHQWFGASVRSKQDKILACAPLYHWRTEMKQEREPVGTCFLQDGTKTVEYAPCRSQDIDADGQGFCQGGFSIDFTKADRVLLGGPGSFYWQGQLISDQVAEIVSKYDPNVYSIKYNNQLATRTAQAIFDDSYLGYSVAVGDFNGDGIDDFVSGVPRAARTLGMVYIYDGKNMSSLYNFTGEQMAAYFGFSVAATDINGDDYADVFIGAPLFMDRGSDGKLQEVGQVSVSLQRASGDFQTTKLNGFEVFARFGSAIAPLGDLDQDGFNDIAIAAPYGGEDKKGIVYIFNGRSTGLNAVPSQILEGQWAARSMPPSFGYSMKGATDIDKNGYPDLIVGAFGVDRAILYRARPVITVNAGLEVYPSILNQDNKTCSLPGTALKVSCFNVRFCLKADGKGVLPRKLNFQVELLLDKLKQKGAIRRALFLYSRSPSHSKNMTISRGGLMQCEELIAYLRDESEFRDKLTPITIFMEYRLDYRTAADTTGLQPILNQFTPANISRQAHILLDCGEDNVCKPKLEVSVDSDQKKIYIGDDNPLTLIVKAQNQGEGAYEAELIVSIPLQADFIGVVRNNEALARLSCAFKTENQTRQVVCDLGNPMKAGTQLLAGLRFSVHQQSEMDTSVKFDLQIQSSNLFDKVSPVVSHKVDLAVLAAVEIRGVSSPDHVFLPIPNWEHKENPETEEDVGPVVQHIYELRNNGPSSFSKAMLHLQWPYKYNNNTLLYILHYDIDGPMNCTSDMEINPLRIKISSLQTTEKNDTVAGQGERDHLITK
# integrin αv β3, sequence (P06756 891-1048 partner limits assumed): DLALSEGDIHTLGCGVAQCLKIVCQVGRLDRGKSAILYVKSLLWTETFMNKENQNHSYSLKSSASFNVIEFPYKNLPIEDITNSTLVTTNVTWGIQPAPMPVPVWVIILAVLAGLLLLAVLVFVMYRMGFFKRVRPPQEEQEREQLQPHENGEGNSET
# integrin αv β3, sequence (P05106 27-788): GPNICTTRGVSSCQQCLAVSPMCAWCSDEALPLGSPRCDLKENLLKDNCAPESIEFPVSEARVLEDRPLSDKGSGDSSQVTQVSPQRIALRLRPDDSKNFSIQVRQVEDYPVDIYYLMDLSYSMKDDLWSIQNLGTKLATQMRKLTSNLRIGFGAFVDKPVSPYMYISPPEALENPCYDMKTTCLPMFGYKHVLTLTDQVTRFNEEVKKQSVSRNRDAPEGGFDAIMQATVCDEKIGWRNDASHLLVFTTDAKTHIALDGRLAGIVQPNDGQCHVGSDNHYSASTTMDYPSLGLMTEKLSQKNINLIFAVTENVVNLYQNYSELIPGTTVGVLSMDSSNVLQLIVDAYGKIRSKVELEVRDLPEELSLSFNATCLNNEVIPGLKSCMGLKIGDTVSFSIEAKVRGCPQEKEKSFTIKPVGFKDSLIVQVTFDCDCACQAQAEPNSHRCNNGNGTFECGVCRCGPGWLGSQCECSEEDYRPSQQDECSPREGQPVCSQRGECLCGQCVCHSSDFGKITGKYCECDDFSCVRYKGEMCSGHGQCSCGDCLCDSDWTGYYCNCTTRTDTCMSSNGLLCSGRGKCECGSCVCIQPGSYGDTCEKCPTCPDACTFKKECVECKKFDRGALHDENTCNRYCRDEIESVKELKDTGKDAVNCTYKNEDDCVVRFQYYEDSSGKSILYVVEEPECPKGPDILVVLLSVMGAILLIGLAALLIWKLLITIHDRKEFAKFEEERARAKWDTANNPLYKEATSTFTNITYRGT
compound,measurement,setting,value
CC(C)[C@@H]1NC(=O)[C@@H](Cc2ccccc2)NC(=O)[C@H](CC(=O)O)NC(=O)CNC(=O)[C@H](CCCN=C(N)N)NC1=O [cyclo-RGDfv],inhibition of angiogenesis / neovascularization,αv β3 receptor,inhibit the neovascularization process
GRGDSP [Arg-Gly-Asp containing peptide],osteoclast function,osteoclasts,disruption of osteoclast function
ACPSRLDSPCG (disulfide 2-10 (inferred)) [RLD peptide synthesized from a random cyclic phage library (Koivunen et al.)],selectivity for the integrin αv β3,integrin αv β3,only partially selective
same,activity relative to an RGD peptide (fold lower),integrin αv β3; binding and cell adhesion assays,100-1000 fold
Gly-Arg-Gly-Asp-Ser (GRGDS),inhibition of angiogenesis in vitro,angiogenesis,inhibits angiogenesis in vitro
